The values that follow come from US20240091254A1, “WNT AGONISTS FOR PREVENTION OF CANCER” (ACADEMISH MEDISCH CENTRUM, priority 2021, published 2024).

The test system of data set [1] is Wnt pathway (TOP-GFP reporter). Nature of the data set: TOP-GFP Wnt reporter assay in MEFs. It is filed as cell-based, mouse. Here is the method: Mouse embryonic fibroblasts (MEFs, ATCC) and HEK293T (ATCC) cells were both cultured in Dulbecco's Modified Eagle's Medium (DMEM) supplemented with 10% fetal calf serum (FCS), 1% Glutamine, and antibiotic penicillin and streptomycin. Cells were maintained at 37° C. in humidified air containing 5% CO2. All cell lines were routinely checked for mycoplasm contamination, no cell line authentication was performed.
Mouse embryonic fibroblasts (MEFs) were cultured in Dulbecco's Modified Eagle's Medium (DMEM) supplemented with 10% fetal calf serum (FCS), 1% Glutamine, and antibiotic penicillin and streptomycin. MEFs were stably transduced with Wnt reporter TOP-GFP (Addgene plasmid #35491). For TOP-GFP assays, cells were stimulated with Wnt3A conditioned medium for 24 hours after which GFP positivity was measured by flow cytometry.
A general note: Reporter assays use an easily measured gene product as a stand-in for the process of interest.

For a further data set, the system named is WT organoids. Nature of the data set: Murine WT intestinal organoids incubated with conditioned medium or recombinant Wnt antagonists (expansion, clonogenicity). It is filed as cell-based, mouse. To be noted: WT organoids, Apc-/- CM, 5 mM LiCl. On the procedure:
Murine intestinal crypts were isolated from Lgr5-EGFP-IRES-Cre^ERT2, Lgr5-EGFP-IRES-Cre^ERT2;Ape/or Villin-Cre^ERT2;Apc^fl/fl mice as described by Sato et al.^35. In short, intestines were removed from the mouse and washed thoroughly with ice-cold PBS. Next, the intestine was opened longitudinally and the villi were gently scraped off by a glass cover slide. The intestine was cut into pieces of 5×5 mm and incubated in 2 mM EDTA solution for 30 min. at 4° C. After removal of the EDTA, the crypts were resuspended in ice-cold 1% FCS in PBS by vigorously shaking the tube and passing the supernatant through a 70 µm strainer. Isolated crypts were resuspended in Matrigel® (Corning) and seeded in pre-heated 24-well plates, supplemented with basal organoid medium consisting of advanced DMEM/F12 medium (Gibco) containing 100× N2 and 50× B27 supplements, 100× Glutamax, 5 mM HEPES, 1 mM N-acetyl-L-cysteine (Sigma), and 100× antibiotic/antimycotic (all Gibco). The basal organoid medium was freshly supplemented with the following growth factors: mouse EGF 50 ng/ml (TEBU-BIO), R-spondin (conditioned medium), Noggin (conditioned medium). The first two days after crypt isolation CHIR99021 (Axon Medchem) and ROCK inhibitor (Sigma) was added to the medium. Ctnnb1^S organoids expressing a constitutive active variant of β-catenin were generated as described by Adam et al.^36. For in vitro recombination of loxP flanked alleles, 1 μM 40H-Tamoxifen (Sigma) was added to the medium. Recombination of the Apc gene was validated by digital droplet PCR (Bio-Rad) using EvaGreen® Supermix (Bio-Rad). Lgr5-EGFP-IRES-Cre^ERT2 organoids, referred to as wild type (WT) organoids, were stably transduced with a red fluorescent mCherry construct (LeGO-C2, Addgene #27399). The in vitro recombined Lgr5-EGFP-IRES-Cre^ERT2;Apc^fl/fl, referred to as Apc^−/−, were stably transduced with a green fluorescent Venus construct (LeGO-V2, Addgene #27340). During competition assays, organoids were plated in equal numbers in 24-well plates and full wells were scanned over time by the EVOS FL Cell Imaging System (Thermo Scientific). Conditioned medium (CM) was taken from 2-3 day old WT or Apc^−/− organoid cultures and freshly supplemented with growth factors R-spondin, Noggin and mEGF. During the competition assays the medium (normal and conditioned) was replaced every other day to minimize effects of medium depletion. To assess the effect of medium depletion, CM was 10× concentrated using 10 kDa Amicon® centrifugal filters (Millipore) and added to fresh ENR medium as 1:10. […] Recombinant proteins NOTUM (2 μg/mL, R&D, 9150-NO-050), WIF1 (5 μg/mL, R&D, 135-WF-050) and DKK2 (1 μg/mL, R&D, 2435-DKB-010) were freshly added to the culture medium, medium was refreshed every other day.

Data set [2] in a line: Lithium levels in mouse serum after oral LiCl. It is filed as in vivo. Particulars: oral LiCl 300 mg/liter in tap water, Lgr5-CreErt2;Rosa26mTmG mice. Here is the method:
Lgr5-EGFP-IRES-Cre^ERT2 Villin-Cre^ERT2, Rosa26mTmG, Apc^fl/fl and Kras^G12D mice have been described earlier^30-34. All in vivo experiments were approved by the animal experimentation committee at the Amsterdam UMC—location Academic Medical Center in Amsterdam under nationally registered licence number AVD1180020172125 and performed according to national guidelines. Mice were housed in a 12 hour light/12 hour dark cycle, with temperatures between 20-24° C. and 40-70% humidity. For short term assays, both male and female mice were used. For long term assays, only females were used to prevent the risk of preliminary dropout due to fighting male mice. All mice were between 6-12 weeks old at the start of the experiments. For all mouse experiments, sufficient sample sizes were determined based on previous studies with a similar study design^3,35. Experimental animals were randomly assigned to the control or lithium treated groups, clone sizes and adenoma counts were scored blindly. […] Mouse discomfort during tumour formation assays was closely monitored, and endpoints were determined as <15% weight loss within 2 days or a mouse grimace scale (MGS) score<3. […] After 60 days, intestines were removed and polyps were counted macroscopically.

On to `[Cl-].[Li+]` [LiCl, lithium chloride], for which, in data set [1] (MEFs, TOP-GFP reporter, 5 mM LiCl), the “Effect on Apc-/- CM reduction of Wnt3a mediated Wnt activation (TOP-GFP)” value was “completely abrogated this effect”. The “Wnt signalling activation in Wnt reporter assay, Li2CO3 compared with LiCl” value in data set [1] (comparable concentrations (5 or 10 mM)) is “activated the same amount of Wnt signalling”. Also, the “Resistance to Apc-/- CM induced reduction in proliferation and clonogenicity” value in the data set on WT organoids was “resistant to the Apc^−/− CM induced reduction in proliferation and clonogenicity”. The “Serum concentrations (Li+), tolerability” value in data set [2] is “well-tolerated serum concentrations”.
